For experiment [1], the target named is T1, PTPN2 (i.e., TC-PTP) (Homo sapiens, UniProt P17706).
T1 sequence (P17706 1-415): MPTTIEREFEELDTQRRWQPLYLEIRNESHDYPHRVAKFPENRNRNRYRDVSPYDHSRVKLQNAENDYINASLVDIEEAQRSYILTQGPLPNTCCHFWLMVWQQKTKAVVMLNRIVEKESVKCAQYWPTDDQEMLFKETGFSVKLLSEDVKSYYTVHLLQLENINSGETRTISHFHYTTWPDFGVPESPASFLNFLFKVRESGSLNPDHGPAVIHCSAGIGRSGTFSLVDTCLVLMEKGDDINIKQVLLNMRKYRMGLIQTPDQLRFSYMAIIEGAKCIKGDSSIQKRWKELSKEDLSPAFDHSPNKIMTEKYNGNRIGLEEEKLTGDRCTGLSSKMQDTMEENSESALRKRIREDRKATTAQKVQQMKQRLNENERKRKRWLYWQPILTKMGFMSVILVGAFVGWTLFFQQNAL
Kind of experiment: Phosphatase activity assay (DiFMUP substrate), PTPN2. Type of experiment: biochemical. The settings on record: compounds binned ≤1 uM or >1 uM. In a few lines: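 Read-out is continuous fluorescence of DiFMU (360 nm excitation, 450 nm emission) over about 15-30 minutes, with DiFMUP substrate at the enzyme's independently determined Km (PTPN2 approx. 45 μM final). Buffer: 50 mM HEPES pH 7.5, 150 mM NaCl, 0.5 mM EDTA, 1 mM DTT, 0.001% Tween-20, room temperature; initial rates versus 10-point dilution fitted for IC50, at least duplicate.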

Experiment [2] addresses T2, PTPN1 (i.e., PTP1B) (Homo sapiens, UniProt P18031).
T2 sequence (P18031 1-435): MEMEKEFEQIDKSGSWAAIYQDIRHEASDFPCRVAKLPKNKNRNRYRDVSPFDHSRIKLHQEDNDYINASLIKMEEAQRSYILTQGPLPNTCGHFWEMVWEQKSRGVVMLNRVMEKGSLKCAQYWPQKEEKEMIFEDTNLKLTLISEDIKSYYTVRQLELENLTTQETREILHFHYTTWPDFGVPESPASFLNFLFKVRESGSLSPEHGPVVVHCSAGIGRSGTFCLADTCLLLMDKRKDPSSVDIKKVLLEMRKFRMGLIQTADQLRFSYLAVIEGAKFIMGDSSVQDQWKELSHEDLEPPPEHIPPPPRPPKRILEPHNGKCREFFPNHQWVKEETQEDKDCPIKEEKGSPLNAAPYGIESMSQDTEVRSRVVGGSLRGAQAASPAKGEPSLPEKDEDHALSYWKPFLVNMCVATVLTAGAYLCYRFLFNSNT
Kind of experiment: Phosphatase activity assay (DiFMUP substrate), PTP1B. Type of experiment: biochemical. The conditions noted are these: compounds binned ≤1 uM or >1 uM. The method in brief:
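RT, HEPES pH 7.5 buffer with DTT/Tween-20. 10-point inhibitor series premixed ~2 min with enzyme (PTPN2 0.025 ng/ul). Start with DiFMUP at enzyme Km (~45 μM for PTPN2). Read DiFMU ex360/em450 continuously 15–30 min; initial rate vs concentration, 4-parameter fit → IC50.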

The term IC50 denotes the concentration that gives 50% inhibition.

With `O=C1CN(c2c(O)ccc(C3=CCN(S(=O)(=O)C4CC4)CC3)c2F)S(=O)(=O)N1` [Compound 355, 5-(3-(1-(cyclopropylsulfonyl)-1,2,3,6-tetrahydropyridin-4-yl)-2-fluoro-6-hydroxyphenyl)-1,2,5-thiadiazolidin-3-one 1,1-dioxide], the IC50 in experiment [1] and in experiment [2] was at most 1000 nM throughout.

On to `CC(C)Cc1cc(-c2ccc(O)c(N3CC(=O)NS3(=O)=O)c2F)[nH]n1` [Compound 370, 5-(2-fluoro-6-hydroxy-3-(3-isobutyl-1H-pyrazol-5-yl)phenyl)-1,2,5-thiadiazolidin-3-one 1,1-dioxide], for which the IC50 in experiment [1] and in experiment [2] was at most 1000 nM in each case.

In the case of `O=C1CN(c2c(O)ccc(-c3cnn(CC4CC5CCC(C4)N5C(=O)C4CC4)c3)c2F)S(=O)(=O)N1` (stereo not shown) [Compound 295, 5-(3-(1-((8-(cyclopropanecarbonyl)-8-azabicyclo[3.2.1]octan-3-yl)methyl)-1H-pyrazol-4-yl)-2-fluoro-6-hydroxyphenyl)-1,2,5-thiadiazolidin-3-one 1,1-dioxide], the IC50 in experiment [1] and in experiment [2] was at most 1000 nM each time.

For `O=C1CN(c2c(O)ccc(-c3cc[nH]c3)c2F)S(=O)(=O)N1` [Compound 129, 5-(2-fluoro-6-hydroxy-3-(1H-pyrrol-3-yl)phenyl)-1,2,5-thiadiazolidin-3-one 1,1-dioxide], the IC50 in experiment [1] and in experiment [2] was at most 1000 nM throughout.

`O=C1CN(c2c(O)ccc(-c3cc(C4CC4(F)F)nn3C(F)F)c2F)S(=O)(=O)N1` (stereo not shown) [Compound 538, 5-(3-(3-(2,2-difluorocyclopropyl)-1-(difluoromethyl)-1H-pyrazol-5-yl)-2-fluoro-6-hydroxyphenyl)-1,2,5-thiadiazolidin-3-one 1,1-dioxide]: the IC50 in experiment [1] and in experiment [2] was at most 1000 nM throughout.

`CC(C)CNc1cccc(-c2ccc(O)c(N3CC(=O)NS3(=O)=O)c2F)c1` [Compound 137, 5-(2-fluoro-4-hydroxy-3′-(isobutylamino)-[1,1′-biphenyl]-3-yl)-1,2,5-thiadiazolidin-3-one 1,1-dioxide]: the IC50 in experiment [1] and in experiment [2] was at most 1000 nM each time.

`O=C1CN(c2c(O)ccc(-c3cnc(NS(=O)(=O)C4CC4)nc3)c2F)S(=O)(=O)N1` [Compound 234, N-(5-(3-(1,1-dioxido-4-oxo-1,2,5-thiadiazolidin-2-yl)-2-fluoro-4-hydroxyphenyl)pyrimidin-2-yl)cyclopropanesulfonamide]: the IC50 in experiment [1] and in experiment [2] was at most 1000 nM each time.

Take `O=C1CN(c2c(O)ccc(-c3cn(C4CC4)cn3)c2F)S(=O)(=O)N1` [Compound 176, 5-(3-(1-cyclopropyl-1H-imidazol-4-yl)-2-fluoro-6-hydroxyphenyl)-1,2,5-thiadiazolidin-3-one 1,1-dioxide]: the IC50 in experiment [1] and in experiment [2] was at most 1000 nM in each case.

Turning to `N#C[C@H]1CC[C@H](n2cc(-c3ccc(O)c(N4CC(=O)NS4(=O)=O)c3F)cn2)CC1` [Compound 305, (1r,4r)-4-(4-(3-(1,1-dioxido-4-oxo-1,2,5-thiadiazolidin-2-yl)-2-fluoro-4-hydroxyphenyl)-1H-pyrazol-1-yl)cyclohexane-1-carbonitrile], the IC50 in experiment [1] and in experiment [2] was at most 1000 nM in each case.

Turning to `O=C1CN(c2c(O)ccc(-c3cc(C(=O)N4CCC4)n[nH]3)c2F)S(=O)(=O)N1` [Compound 230, 5-(3-(3-(azetidine-1-carbonyl)-1H-pyrazol-5-yl)-2-fluoro-6-hydroxyphenyl)-1,2,5-thiadiazolidin-3-one 1,1-dioxide], the IC50 in experiment [1] and in experiment [2] was at most 1000 nM in each case.

As for `O=C1CN(c2c(O)ccc(-c3cc(C#CC4CCCCC4)n[nH]3)c2F)S(=O)(=O)N1` [Compound 253, 5-(3-(3-(cyclohexylethynyl)-1H-pyrazol-5-yl)-2-fluoro-6-hydroxyphenyl)-1,2,5-thiadiazolidin-3-one 1,1-dioxide], the IC50 in experiment [1] and in experiment [2] was at most 1000 nM throughout.

In the case of `O=C1CN(c2c(O)ccc(-c3cnn(C(F)(F)C(F)F)c3)c2F)S(=O)(=O)N1` [Compound 410, 5-(2-fluoro-6-hydroxy-3-(1-(1,1,2,2-tetrafluoroethyl)-1H-pyrazol-4-yl)phenyl)-1,2,5-thiadiazolidin-3-one 1,1-dioxide], the IC50 in experiment [1] and in experiment [2] was at most 1000 nM in each case.

As to `O=C1CN(c2c(O)ccc(-c3cnn(C4(C(F)F)CC4)c3)c2F)S(=O)(=O)N1` [Compound 542, 5-(3-(1-(1-(difluoromethyl)cyclopropyl)-1H-pyrazol-4-yl)-2-fluoro-6-hydroxyphenyl)-1,2,5-thiadiazolidin-3-one 1,1-dioxide], the IC50 in experiment [1] and in experiment [2] was at most 1000 nM in each case.

For the compound `O=C1CN(c2c(O)ccc(-c3cccc(NS(=O)(=O)C4CC4)c3)c2F)S(=O)(=O)N1` [Compound 449, N-(3′-(1,1-dioxido-4-oxo-1,2,5-thiadiazolidin-2-yl)-2′-fluoro-4′-hydroxy-[1,1′-biphenyl]-3-yl)cyclopropanesulfonamide], the IC50 in experiment [1] and in experiment [2] was at most 1000 nM throughout.

With `N#Cc1cc(F)cc(-n2cnc(-c3ccc(O)c(N4CC(=O)NS4(=O)=O)c3F)c2)c1` [Compound 433, 3-(4-(3-(1,1-dioxido-4-oxo-1,2,5-thiadiazolidin-2-yl)-2-fluoro-4-hydroxyphenyl)-1H-imidazol-1-yl)-5-fluorobenzonitrile], the IC50 in experiment [1] and in experiment [2] was at most 1000 nM each time.

As for `Cn1nc(-c2ccc(O)c(N3CC(=O)NS3(=O)=O)c2F)cc1C1CC1(F)F` (stereo not shown) [Compound 319, 5-(3-(5-(2,2-difluorocyclopropyl)-1-methyl-1H-pyrazol-3-yl)-2-fluoro-6-hydroxyphenyl)-1,2,5-thiadiazolidin-3-one 1,1-dioxide], the IC50 in experiment [1] and in experiment [2] was at most 1000 nM in each case.

On to `O=C1CN(c2c(O)ccc(-c3cnn(C4CCOCC4)c3)c2F)S(=O)(=O)N1` [Compound 214, 5-(2-fluoro-6-hydroxy-3-(1-(tetrahydro-2H-pyran-4-yl)-1H-pyrazol-4-yl)phenyl)-1,2,5-thiadiazolidin-3-one 1,1-dioxide], for which the IC50 in experiment [1] and in experiment [2] was at most 1000 nM each time.

As to `CC(N)c1cc(-c2ccc(O)c(N3CC(=O)NS3(=O)=O)c2F)[nH]n1` (stereo not shown) [Compound 297, 5-(3-(3-(1-aminoethyl)-1H-pyrazol-5-yl)-2-fluoro-6-hydroxyphenyl)-1,2,5-thiadiazolidin-3-one 1,1-dioxide], the IC50 in experiment [1] and in experiment [2] was at most 1000 nM in each case.

With `Cn1nc(-c2ccc(O)c(N3CC(=O)NS3(=O)=O)c2F)nc1C1CC1(F)F` (stereo not shown) [Compound 540, 5-(3-(5-(2,2-difluorocyclopropyl)-1-methyl-1H-1,2,4-triazol-3-yl)-2-fluoro-6-hydroxyphenyl)-1,2,5-thiadiazolidin-3-one 1,1-dioxide], the IC50 in experiment [1] and in experiment [2] was at most 1000 nM throughout.

`COc1cccc(-n2cnc(-c3ccc(O)c(N4CC(=O)NS4(=O)=O)c3F)c2)c1` [Compound 445, 5-(2-fluoro-6-hydroxy-3-(1-(3-methoxyphenyl)-1H-imidazol-4-yl)phenyl)-1,2,5-thiadiazolidin-3-one 1,1-dioxide]: the IC50 in experiment [1] and in experiment [2] was at most 1000 nM throughout.

For `CC(C)CNc1ccc(-c2ccc(O)c(N3CC(=O)NS3(=O)=O)c2F)cc1` [Compound 193, 5-(2-fluoro-4-hydroxy-4′-(isobutylamino)-[1,1′-biphenyl]-3-yl)-1,2,5-thiadiazolidin-3-one 1,1-dioxide], the IC50 in experiment [1] and in experiment [2] was at most 1000 nM in each case.

Regarding `O=C1CN(c2c(Cl)ccc(-c3cc(C4CC4)n[nH]3)c2F)S(=O)(=O)N1` [Compound 487, 5-(6-chloro-3-(3-cyclopropyl-1H-pyrazol-5-yl)-2-fluorophenyl)-1,2,5-thiadiazolidin-3-one 1,1-dioxide], the IC50 in experiment [1] was over 1000 nM; in experiment [2] it was at most 1000 nM.

Consider `O=C1CN(c2c(O)ccc(-c3ccc(NS(=O)(=O)C4CC4)cc3F)c2F)S(=O)(=O)N1` [Compound 438, N-(3′-(1,1-dioxido-4-oxo-1,2,5-thiadiazolidin-2-yl)-2,2′-difluoro-4′-hydroxy-[1,1′-biphenyl]-4-yl)cyclopropanesulfonamide], for which the IC50 in experiment [1] and in experiment [2] was at most 1000 nM throughout.

(Values after patent US20240398828A1, “HETERO-ATOM CONTAINING COMPOUNDS AND USES THEREOF” (Kumquat Biosciences Inc., priority 2021, published 2024).)
